# Values of other authors, collected in PMC2600787, “Flanking p10 contribution and sequence bias in matrix based epitope prediction: revisiting the assumption of independent binding pockets” (BMC Structural Biology, 2008).
# Test system: HLA-DR1
# Design: method as in 2 sources, ref Geluk et al. [32] ||| ref [32] = [32]; PMID 9753297; doi:10.2337/diabetes.47.10.1594; Geluk A van Meijgaarden KE Schloot NC Drijfhout JW Ottenhoff TH Roep BO HLA-DR binding analysis of peptides from islet antigens in IDDM Diabetes 1998 47 1594 1601 9753297 10.2337/diabetes.47.10.1594; pIC50exp: unit not given here
# Conditions: according to IC50 binding measurements; ref [32]
# Source text: Anchor residues at dominant pockets p1, p4, p6 and p9 are as expected for DR1 [12].
row,binding to DR1 (in words),Substance
1,strong binder,"SCSKVDVNYAFLHATDLLPA [peptide 9, 20-mer peptide from GAD65]"

# Same assay, conditions: experimental binding affinity to HLA-DR1; logarithmic transform of IC50; 20-mer peptides from GAD65 (1 through 100) and ICA69 (101 and above), pruned to remove poor binders; ref Geluk et al. [32]
row,Substance,pIC50exp
1,"MASPGSGFWSFGSEDGSGDS [peptide 1, 20-mer peptide from GAD65]",-0.70
2,"LQDVMNILLQYVVKSFDRST [peptide 12, 20-mer peptide from GAD65]",-0.60
3,"LVSATAGTTVYGAFDPLLAV [peptide 33, 20-mer peptide from GAD65]",0.05
4,"FRKVQTQVRLAKKNFDKLKM [peptide 120, 20-mer peptide from ICA69]",0.00
5,"SVVNKMQQRYWETKQAFIKA [peptide 103, 20-mer peptide from ICA69]",1.00
6,"SCSKVDVNYAFLHATDLLPA [peptide 9, 20-mer peptide from GAD65]",1.52
7,115: 20-mer peptide from ICA69 (VETFRHRAISDTWLTVNRME) [compound 115],1.10

# Now from value to substance:
row,pIC50exp,Substance
1,0.22,"DPDLYKQMEKFRKVQTQVRL [peptide 119, 20-mer peptide from ICA69]"
2,0.10,"AIHESFKGYQPYEFTTLKSL [peptide 126, 20-mer peptide from ICA69]"
3,-0.77,"YVVKSFDRSTKVIDFHYPNE [peptide 13, 20-mer peptide from GAD65]"
4,1.10,"QCRTEYRGALLWMKDVSQEL [peptide 117, 20-mer peptide from ICA69]"
5,0.52,"RKESSSFKTEDGKSILSALD [peptide 132, 20-mer peptide from ICA69]"

# Target: HLA-DRB3*0101 (HLA-DR52a) (Homo sapiens, UniProt P01903+P79483)
# Conditions: earlier structural and binding studies; crystallography CSP, unpublished; ref not given
# Source text: Results from structural and binding studies using the peptide […] in complex with HLA-DRB3*0101 (HLA-DR52a) show a contribution from position p10. 24-[…]-39, from the N-terminus of human […] is a major ligand of DR52a. A natural variant of the epitope widely distributed in the population is 24-[…]-39. The Leu33/Pro33 dimorphism is the basis of the unidirectional alloimmune posttransfusion thrombocytopenia purpura (PTP) and fetal-maternal alloimmune thrombocytopenia (FMAIT), severe blood disorders in some DR52a subjects homozygous in Pro33 [[2 ...
row,binding to DR52a (in words),Substance
1,does not bind,AWCSDEALPPGS [shorter Pro33 integrin peptide]
2,does not bind,AWCSDEALPPGSPRCD
3,major ligand,"AWCSDEALPLGSPRCD [peptide from the N-terminus of human integrin α2βIIIa, a major ligand of DR52a]"
4,has been demonstrated to bind,AWCSDEALPPLS [Pro33 integrin peptide with leucine replacing glycine at position 10]
